Laboratory results published in patent US20240139178A1, “METHOD FOR MANUFACTURING COMPOSITION FOR COMPOSITION FOR INCREASING COGNITIVE FUNCTION” (priority 2018, published 2024).

target: T1, Aβ1-42 (Homo sapiens, UniProt P05067); experiment: Aβ aggregation inhibition test (Thioflavin T analysis); format: biochemical; settings: 20 μM compound, 50 μM Aβ, 3 days; relative to control (100%)
T1 construct: human A81-42 monomers (UniProtKB-P05067, a.a. 672-713)
Protocol: Then, the compound was used diluted by using 6% DMSO (in DW) and used.
Triflupromazine hydrochloride (triflupromazine used in all the examples below is triflupromazine hydrochloride) was dissolved to a concentration of 5 mM in DMSO. The compound was then used diluted with 6% DMSO (in DW).
The Aβ solution was prepared by dissolving human A81-42 monomers (UniProtKB-P05067, a.a. 672-713) to 10 mM concentration in DMSO. Thereafter, the mixture was diluted to 100 uM by using DW and stored on ice.
On the other hand, Thioflavin-T (Sigma-Aldrich) was dissolved to the concentration of 5 mM in 50 mM glycine buffer (pH 8.5). Then, the resultant solution was diluted to the concentration of 50 μM by using 50 mM glycine buffer (pH 8.5) and stored in the dark while light was blocked.
(§1) 25 μL of the reaction solution in which the reaction was completed was added to each well of a 96-well fluorescence assay plate, and 75 μL of the Thioflavin-T solution prepared above was added to each well. After reacting for 5 minutes in the dark at room temperature, fluorescence values were measured at excitation 450 nm and emission 485 nm by using a multi-mode microplate reader.
The fluorescence value of the group (control) treated with Aβ alone and aggregated for 72 hours was considered as 100%, and the measured fluorescence values were expressed as a relative value thereto, and results thereof are shown in FIG. 1 and FIG. 2.
In addition, by performing the same test as described above for 20 μM of various compounds using 50 μM Aβ, the degree of Aβ aggregation was measured, and the result is expressed as a relative value for control (100%).

T1 sequence (P05067 672-713): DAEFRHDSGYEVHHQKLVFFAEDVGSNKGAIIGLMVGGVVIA

Compound | Aggregation (%)
CN1CCN(C2=Nc3cc(Cl)ccc3Nc3ccccc32)CC1 [Clozapine] | 99.14%
CC12CC3CC(C)(C1)CC(N)(C3)C2 [Mementine] | 95.84%
CN1CCN(CC/C=C2/c3ccccc3Sc3ccc(S(=O)(=O)N(C)C)cc32)CC1 [Thiothixene] | 125.23%
CCN1CCCC1CNC(=O)c1cc(S(=O)(=O)CC)c(N)cc1OC (stereo not drawn) [Amisulpride] | 96.29%
Cc1nc2n(c(=O)c1CCN1CCC(c3noc4cc(F)ccc34)CC1)CCCC2 [Risperidone] | 117.68%

target: T1, Aβ1-42; experiment: Aβ disaggregation test of rifamycin-based derivatives by Thioflavin T analysis; format: biochemical; settings: 50 μM compound, 50 μM Aβ1-42 aggregated 3 days, then 2 days of reaction
Protocol: The compound was then used diluted with 6% DMSO (in DW).
The Aβ solution was prepared by dissolving Aβ 1-42 monomers to the concentration of 10 mM in DMSO. Thereafter, the mixture was diluted to 100 μM by using DW and stored on ice.
On the other hand, Thioflavin-T was dissolved to the concentration of 5 mM in 50 mM glycine buffer (pH 8.5). Then, the resultant solution was diluted to the concentration of 50 μM by using 50 mM glycine buffer (pH 8.5) and stored in the dark while light was blocked.
The Aβ solution prepared in Example 3.1. was placed in 1.5 mL microcentrifuge tubes, each having 50 μM of the Aβ solution, and then reacted at 37° C. for 72 hours.
Each 1.5 mL microcentrifuge tube was treated with 50 μM rifapentine-based derivatives, followed by reaction at 37° C. for 48 hours.
as §1
The fluorescence value of the group (control) treated with Aβ alone and aggregated for 72 hours by treating only Aβ was considered as 100%, and the measured fluorescence values were expressed as a relative value thereto, and results thereof are shown in FIG. 7.

Compound | Aβ disaggregation effect compared to the control
CO[C@H]1/C=C/O[C@@]2(C)Oc3c(C)c(O)c4c(O)c(cc(OCC(=O)O)c4c3C2=O)NC(=O)/C(C)=C\C=C\[C@H](C)[C@H](O)[C@@H](C)[C@@H](O)[C@@H](C)[C@H](OC(C)=O)[C@@H]1C [rifamycin B, {[(2S,12Z,14E,16S,17S,18R,19R,20R,21S,22R,23S,24E)-21-(acetyloxy)-5,6,17,19-tetrahydroxy-23-methoxy-2,4,12,16,18,20,22-heptamethyl-1,11-dioxo-1,2-dihydro-2,7-(epoxypentadeca[1,11,13]trienoimino)naphtho[2,1-b]furan-9-yl]oxy}acetic acid] | significant disaggregation did not occur
CO[C@H]1/C=C/O[C@@]2(C)Oc3c(C)c(O)c4c(O)c(c5c(nc6cc(C)ccn65)c4c3C2=O)NC(=O)/C(C)=C\C=C\[C@H](C)[C@H](O)[C@@H](C)[C@@H](O)[C@@H](C)[C@H](OC(C)=O)[C@@H]1C (relative stereo) [rifaximin, [2S-(2R*,16Z,18E,20R*,21R*,22S*,23S*,24S*,25R*,26S*,27R*,22E)]-25-acetyloxy) -5,6,21,23-tetrahydroxy-27-methoxy-2,4,11,16,20,22,24,26-octamethyl-2,7-(epoxypentadeca [1,11,13] trienimino) benzofuro [4,5-e] pyrido [1,2-a] benzimidazole-1,15 (2H) -dione] | significant disaggregation did not occur
CO[C@H]1/C=C/O[C@@]2(C)Oc3c(C)c(O)c4c(c3C2=O)C(=O)C=C(NC(=O)/C(C)=C\C=C\[C@H](C)[C@H](O)[C@@H](C)[C@@H](O)[C@@H](C)[C@H](OC(C)=O)[C@@H]1C)C4=O [rifamycin S, 5,17,19,21-tetrahydroxy-23-methoxy-2,4,12,16,18,20,22-heptamethyl-2,7-(epoxypentadeca[1,11,13]trienimino)naphtho[2,1-b]furan-1,6,9,11(2H)-tetrone 21-acetate] | 25%
COC1C=COC2(C)Oc3c(C)c(O)c4c(O)c(c5c(c4c3C2=O)=NC2(CCN(CC(C)C)CC2)N=5)NC(=O)C(C)=CC=CC(C)C(O)C(C)C(O)C(C)C(OC(C)=O)C1C [ripabutin, (S,12E,14S,15R,16S,17R,18R,19R,20S,21S,22E,24Z)-6,16,18,20-tetrahydroxy-1′-isobutyl-14-methoxy-7,9,15,17,19,21,25-heptamethyl-spiro[9,4-(epoxypentadeca[1,11,13]trienimino)-2H-furo[2″,3″:7,8]naphth[1,2-dimidazole-2,4″-piperidine]-5,10,26-(3H,9H)-trione-16-acetate] | about 50%
3-[[[4-(2-Methylpropyl)-1-piperazinyl]imino]methyl]rifamycin [rifamdin] | about 50%
CO[C@H]1/C=C/O[C@@]2(C)Oc3c(C)c(O)c4c(O)c(cc(O)c4c3C2=O)NC(=O)/C(C)=C\C=C\[C@H](C)[C@H](O)[C@@H](C)[C@@H](O)[C@@H](C)[C@H](OC(C)=O)[C@@H]1C [rifamycin SV, 5,6,9,17,19,21-Hexahydroxy-23-methoxy-2,4,12,16,18,20,22-heptamethyl-2,7-(epoxypentadeca[1,11,13]trienimino)naphtho[2,1-b]furan-1,11(2H)-dione 21-acetate] | about 50%
CO[C@H]1/C=C/O[C@@]2(C)Oc3c(C)c(O)c4c(O)c(c(/C=N/N5CCN(C)CC5)c(O)c4c3C2=O)NC(=O)/C(C)=C\C=C\[C@H](C)[C@H](O)[C@@H](C)[C@@H](O)[C@@H](C)[C@H](OC(C)=O)[C@@H]1C [rifampicin, 5,6,9,17,19,21-hexahydroxy-23-methoxy-2,4,12,16,18,20,22-heptamethyl-8-[N-(4-methyl-1-piperazinyl) formimidoyl]-2,7-(epoxypentadeca [1,11,13]trienimino)-naphtho [2,1-b] furan-1,11 (2H) -dione 21-acetate] | about 50%
